Measured values published in patent US8765953B2, “Compounds and methods for the treatment of pain and other diseases” (Aquilus Pharmaceuticals, Inc., priority 2008, dated 2014).
Values belong to the molecule of their own block, whether it stands above or below them.

How the values were obtained:
[1] = test system: spinal nerve ligation (SNL) mouse model; test: Intraperitoneal (i.p.) SNL-mouse model of neuropathic pain, von Frey mechanical allodynia; assay type: in vivo
Excerpt: (§1) To measure the neuropathic pain inhibiting affects of the MMP inhibitors of the present invention, the spinal nerve ligation (SNL) mouse model was run on a select number of compounds. This model which began with the work of Bennet and coworkers (Bennet, G. J. et al. Pain, 33, (1988), 87-107) and was optimized by Kim and Chung (Kim, S. H.; Chung, J. M. Pain, 50, (1992), 355-363) entails first, under magnification, the removal of one-third of the transverse process and then identifying and then dissecting free the L5 spinal nerve from the adjacent L4 spinal nerve in the mouse. The L5 spinal nerve is then tightly ligated using 6.0 silk suture. The nerve injury leads to hyperalgesia which manifests itself by enhanced responses to mechanical, heat and/or cooling stimuli. In this case, mechanical hyperalgesia is tested via Von Frey monofilaments in which filaments of varying thicknesses and bending force are individually applied to the plantar surface of the foot of the mouse. The threshold force necessary for paw withdrawal decreases dramatically after the nerve surgery. Potent pain inhibitors will reverse this affect resulting in greater force needing to be applied to cause the rodent paw to withdrawal.
Tactile Allodynia Test. Mechanical allodynia was measured using the calibrated von Frey filaments (Semmes-Weinstein monofilaments; Stoelting, Wood Dale, Ill., U.S.A.). The plantar surface of the left injured paw of each animal was tested as described by Chaplan et al. (Journal of Neuroscience Methods, 53, (1994), 55-63). The Fifty percent paw withdrawal threshold response was determined by sequentially increasing or decreasing the stimulus strength according to the “up-down method” of Dixon (Annual Review Pharmacology Toxicology, 20, (1980), 441-462). For mice, […] von Frey filaments were used, with approximately equal logarithmic incremental bending forces (von Frey number: 1.65, 2.36, 2.44, 2.83, 3.22, 3.61, 3.84, 4.08, and 4.17; equivalent to 0.005, 0.02, 0.03, 0.07, 0.17, 0.41, 0.69, 1.20, and 1.48 g force, respectively).
Prior to testing, each animal was placed in a suspended clear plastic chamber with a wire mesh bottom and acclimated for 15 minutes. Testing was initiated with the 0.07 g (handle marking of 2.83) applied perpendicularly to the plantar surface of the affected hind paw; each filament was applied with enough pressure to cause a buckle effect. The absence of a paw lifting/withdrawal response after 6 s prompted the use of the next higher weight filament. Paw withdrawal, indicating a positive response, prompted the use of a weaker filament. After the initial positive response (i.e., paw withdrawal), the testing continued for four additional measurements, and was used to calculate the response threshold. Four consecutive positive responses received a score of 0.001 g, and five consecutive negative responses (i.e., no paw withdrawal) received a score of 1.5 g.
Analyses for Tactile Allodynia Testing. The 50% paw withdrawal threshold was calculated (PWT; Luo and Calcutt, J. Pharmacology Experimental Therapeutics, 303(3), (2002), 1199-1205; Chaplan et al. Journal of Neuroscience Methods, 53, (1994), 55-63) using the formula: 10(Xf+κδ)/10,000 where Xf is the final von Frey filament used (log units), κ is a value that analyzes the response pattern (taken from the table published by Chaplan et al., 1994), and δ is the mean difference between stimuli (log units).
Except for the mode of administration, number of mice/group and the number of injections and amount of compound per injection, the rest of the study was done in the same manner (in regards to the surgeries and tactile allodynia testing and analysis) as Experiment 110. 3.2 mg of each of the MMP inhibitors #5 and #118 were dissolved in 320 microliters of DMSO. To the solution was then added 32 microliters of Tween 80, followed by 2850 microliters of phosphate buffered saline (PBS). This gave a final concentration of 10% DMSO, 1% Tween and 1 mg/ml compound. […]

[2] = In-vitro mouse microsomal stability; assay type: in vitro ADME; conditions: mouse microsomes, 1 microMolar compound, at T = 60 minutes
Protocol: Human and mouse microsomal stability was determined for select compounds following the method of Houston (Houston, J. B; Biochem. Pharmacol. 47, (1994),1469).
1 μM concentration of compound and separate human and mouse microsomes (0.3 mg/mL, BD bioscience) were used in the in-vitro assay. To ensure proper energy supply for microsomal degradation of compound, an energy regenerating system comprised of 100 mM potassium phosphate, 2 mM NADPH, 3 mM MgCl2, pH=7.4. and the microsomal protein is added to each sample and the resulting suspension is then incubated in duplicate for 60 min at 37° C. in a rotary shaker. A control is run for each test agent in duplicate omitting NADPH to detect NADPH-free degradation. At T=0 and T=60 min., an aliquot is removed from each experimental and control reaction and then mixed with an equal volume of ice-cold Stop Solution (consisting of 0.3% acetic acid in acetonitrile containing haloperidol and diclofenac as internal standards). Stopped reactions are then incubated for at least ten minutes at −20° C., and an additional volume of water is then added. The samples are then centrifuged to remove precipitated protein, and the supernatants are then analyzed by LC-MS/MS to determine the percentage of compound remaining. The LC-MS/MS system used was an Agilent 6410 mass spectrometer coupled with an Agilent 1200 HPLC and a CTC PAL chilled autosampler, all controlled by MassHunter software (Agilent), or an ABI2000 mass spectrometer coupled with an Agilent 1100 HPLC and a CTC PAL chilled autosampler, all controlled by Analyst software (ABI). After separation on a C18 reverse phase HPLC column (Agilent, Waters, or equivalent) using an acetonitrile-water gradient system, peaks were analyzed by mass spectrometry (MS) using ESI ionization in MRM mode.

[3] = test system: spinal nerve ligation (SNL) mouse model; test: Intrathecal (i.t.) SNL-mouse model of neuropathic pain, von Frey mechanical allodynia; assay type: in vivo, FVB male mice
Excerpt: as §1
Following preoperative baseline (Day −2) paw threshold measurement, FVB male mice were subjected to SNL injury (Day −1). The next day (Day 0) after SNL surgery, the animals were tested for post-operative baseline threshold measurements for mechanical allodynia; and the animals were then randomly assigned to one of 3 treatment groups (see Table 9). Over the course of the study, paw withdrawal threshold of these animals was measured in response to mechanical stimulation using the von Frey Monofilament Test.
To avoid systemic effects of the MMP inhibitors, the MMP inhibitors of the present invention were delivered into the cerebral spinal fluid (CSF) space around lumbosacral spinal cord via intrathecal (i.t.) administration, with the idea of targeting MMPs in the DRG, spinal cord, and spinal CSF. Intrathecal MMP inhibitor administration could then target not only spinal cord cells but also DRG cells. Each intrathecal (i.t.) injection was carried out according to the technique of Hylden and Wilcox (Hylden J L, Wilcox G L. Eur. J. Pharmacol., 67, (1980), 313-6) 5.2 mg of each of the MMP inhibitors were first dissolved in 140 microliters of DMSO and then put into 1260 microliters of 0.5% hydroxypropyl cellulose (HPC) in water to make a fine suspension composed of compound in 10% DMSO-0.5% hydroxypropyl cellulose. 10 microliters of the mixture was injected into the intrathecal space of male FVB mice (weighing 22-25 grams each and obtained from the Jackson Laboratories, Bar Harbor, Me.), by lumbar puncture in a volume of 10 μl/mouse using a Hamilton microsyringe via a 30 gauge needle inserted between lumbar vertebrae 5 and 6. In brief, each animal was held firmly by the pelvic girdle in one hand, while the needle was inserted into the tissue on the right side of the L5 or L6 spinous process. The needle was moved forward and slipped into the groove between the spinous process and transverse process and gently moved forward to the intervertebral space at ˜10° angle. As the needle was inserted (˜0.5 cm) within the vertebral column a tail flick was evident, and the solution was then injected.
Tactile Allodynia Test. Mechanical allodynia was measured using the calibrated von Frey filaments (Semmes-Weinstein monofilaments; Stoelting, Wood Dale, Ill., U.S.A.). The plantar surface of the left injured paw of each animal was tested as described by Chaplan et al. (Journal of Neuroscience Methods, 53, (1994), 55-63). The Fifty percent paw withdrawal threshold response was determined by sequentially increasing or decreasing the stimulus strength according to the “up-down method” of Dixon (Annual Review Pharmacology Toxicology, 20, (1980), 441-462). […]

[4] = test system: mechanical nociception; conditions: in vivo; cited from earlier work
[5] = test system: humans; conditions: humans (S-3304: animals or man); cited from earlier work
[6] = biological target: T1, MMP-7 (Homo sapiens, UniProt P09237); conditions: cited from earlier work
T1 sequence (P09237 95-267): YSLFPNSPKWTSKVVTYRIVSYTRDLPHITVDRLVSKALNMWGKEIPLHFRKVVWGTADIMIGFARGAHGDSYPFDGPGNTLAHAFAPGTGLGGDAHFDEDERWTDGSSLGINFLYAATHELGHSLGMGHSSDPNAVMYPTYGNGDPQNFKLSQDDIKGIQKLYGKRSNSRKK

[7] = biological target: MMP-3 (Homo sapiens, UniProt P08254); conditions: cited from earlier work
[8] = biological target: MMP-13 (Homo sapiens, UniProt P45452); conditions: cited from earlier work
[9] = biological target: MMP-9 (Homo sapiens, UniProt P14780); conditions: cited from earlier work
[10] = biological target: MMP-8 (Homo sapiens, UniProt P22894); conditions: cited from earlier work
[11] = test system: rat formalin test; conditions: cited from earlier work
[12] = biological target: MMP-12 (Homo sapiens, UniProt P39900); conditions: cited from earlier work
[13] = biological target: T2, MMP-2 (Homo sapiens, UniProt P08253); conditions: cited from earlier work
T2 sequence (P08253 110-660): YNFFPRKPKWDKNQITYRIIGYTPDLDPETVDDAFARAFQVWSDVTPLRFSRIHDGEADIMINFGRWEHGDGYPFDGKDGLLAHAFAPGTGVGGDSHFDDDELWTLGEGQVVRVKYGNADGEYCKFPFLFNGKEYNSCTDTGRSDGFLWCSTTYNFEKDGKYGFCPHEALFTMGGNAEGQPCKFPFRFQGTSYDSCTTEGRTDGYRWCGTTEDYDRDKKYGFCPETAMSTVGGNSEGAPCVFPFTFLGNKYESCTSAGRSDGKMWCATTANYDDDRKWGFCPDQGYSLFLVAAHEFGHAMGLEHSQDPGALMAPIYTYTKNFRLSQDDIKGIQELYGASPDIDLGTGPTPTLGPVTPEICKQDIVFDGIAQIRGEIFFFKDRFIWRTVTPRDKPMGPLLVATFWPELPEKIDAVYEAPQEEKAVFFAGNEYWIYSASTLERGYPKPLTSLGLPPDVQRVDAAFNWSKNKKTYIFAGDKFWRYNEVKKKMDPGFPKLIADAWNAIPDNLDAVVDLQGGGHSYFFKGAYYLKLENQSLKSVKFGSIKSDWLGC

[14] = test system: L5 spinal nerve ligation (SNL) neuropathic pain model; conditions: in vivo; cited from earlier work
[15] = i.p. 100 μl/mouse daily (approx. 3.3 mg/Kg), day 1-5

Chain of MMP-12 (P39900 106-470, species assumed): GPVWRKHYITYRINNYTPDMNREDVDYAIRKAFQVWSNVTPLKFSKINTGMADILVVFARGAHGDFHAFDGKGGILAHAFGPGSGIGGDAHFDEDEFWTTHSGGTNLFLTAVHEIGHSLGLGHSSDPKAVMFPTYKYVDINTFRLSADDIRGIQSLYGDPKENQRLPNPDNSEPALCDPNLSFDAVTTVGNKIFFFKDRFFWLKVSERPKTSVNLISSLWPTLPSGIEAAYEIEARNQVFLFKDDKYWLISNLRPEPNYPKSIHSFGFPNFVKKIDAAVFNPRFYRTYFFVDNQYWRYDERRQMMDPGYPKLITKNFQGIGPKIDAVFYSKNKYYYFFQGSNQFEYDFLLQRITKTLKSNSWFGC
Chain of MMP-8 (P22894 101-467, species assumed): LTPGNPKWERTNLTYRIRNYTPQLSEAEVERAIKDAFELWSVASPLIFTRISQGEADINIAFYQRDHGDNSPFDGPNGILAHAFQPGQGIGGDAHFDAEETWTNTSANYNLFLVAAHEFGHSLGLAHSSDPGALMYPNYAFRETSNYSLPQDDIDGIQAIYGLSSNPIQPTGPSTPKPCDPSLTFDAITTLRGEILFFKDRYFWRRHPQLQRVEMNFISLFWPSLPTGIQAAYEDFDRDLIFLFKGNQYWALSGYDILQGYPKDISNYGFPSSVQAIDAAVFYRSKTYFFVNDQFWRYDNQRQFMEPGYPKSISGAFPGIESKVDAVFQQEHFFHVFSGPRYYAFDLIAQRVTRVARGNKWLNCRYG
Chain of MMP-9 (P14780 94-707, species assumed): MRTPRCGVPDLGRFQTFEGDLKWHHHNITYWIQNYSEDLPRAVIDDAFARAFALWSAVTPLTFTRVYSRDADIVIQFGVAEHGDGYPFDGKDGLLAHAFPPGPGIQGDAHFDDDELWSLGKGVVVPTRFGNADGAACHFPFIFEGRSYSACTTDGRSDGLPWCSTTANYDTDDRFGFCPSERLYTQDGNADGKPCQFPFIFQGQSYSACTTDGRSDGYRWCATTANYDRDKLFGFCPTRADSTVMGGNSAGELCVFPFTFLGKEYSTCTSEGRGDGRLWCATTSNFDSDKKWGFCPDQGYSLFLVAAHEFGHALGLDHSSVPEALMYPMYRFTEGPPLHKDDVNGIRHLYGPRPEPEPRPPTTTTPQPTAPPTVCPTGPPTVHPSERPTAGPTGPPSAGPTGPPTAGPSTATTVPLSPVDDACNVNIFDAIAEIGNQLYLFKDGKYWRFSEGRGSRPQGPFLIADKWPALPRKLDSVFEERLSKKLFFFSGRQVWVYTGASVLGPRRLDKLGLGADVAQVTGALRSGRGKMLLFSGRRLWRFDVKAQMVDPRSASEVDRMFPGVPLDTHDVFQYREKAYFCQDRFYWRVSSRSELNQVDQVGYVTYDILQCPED
Chain of MMP-3 (P08254 100-477, species assumed): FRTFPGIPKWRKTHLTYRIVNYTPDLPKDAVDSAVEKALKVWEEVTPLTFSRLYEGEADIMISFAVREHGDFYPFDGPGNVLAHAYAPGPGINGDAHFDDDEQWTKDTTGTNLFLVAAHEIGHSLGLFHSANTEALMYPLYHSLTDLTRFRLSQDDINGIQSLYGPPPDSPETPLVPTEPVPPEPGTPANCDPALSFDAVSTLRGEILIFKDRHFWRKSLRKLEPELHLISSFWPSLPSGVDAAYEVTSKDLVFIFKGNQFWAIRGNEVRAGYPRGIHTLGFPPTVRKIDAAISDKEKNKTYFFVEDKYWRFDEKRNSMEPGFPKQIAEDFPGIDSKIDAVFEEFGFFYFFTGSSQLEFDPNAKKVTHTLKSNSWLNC

% Mean Remaining Parent with NADPH (%) ([2]; with NADPH): 85%
% Mean Remaining Parent without NADPH (%) ([2]; without NADPH (control)): 91%
Molecule: [2H]C([2H])([2H])c1ccc(C#Cc2ccc(S(=O)(=O)N[C@H](Cc3c[nH]c4ccccc34)C(=O)O)s2)cc1 [Compound 118, (R)-3-(1H-Indol-3-yl)-2-[5-(4-trideuteromethyl-phenylethynyl)-thiophene-2-sulfonylamino]-propionic acid-(D3, 98%)]
Paw withdrawal threshold, mean, Day 1 [1, 15]: 0.170 grams
Paw withdrawal threshold, mean, Day 2 [1, 15]: 0.350 grams
Paw withdrawal threshold, mean, Day 5 [1, 15]: 1.470 grams
Paw withdrawal threshold, mean, Day 6 [1, 15]: 0.867 grams
Paw withdrawal threshold, mean, Day 7 [1, 15]: 0.250 grams
Reversal of mechanical allodynia ([1]; i.p. administration, by day 5): complete reversal of mechanical alodynia
Paw withdrawal threshold, mean, Day 0 Postoperative Baseline ([1]; i.p. study, baseline before treatment): 0.096 grams
Paw withdrawal threshold, mean, Day 5 ([3]; i.t. 10 μl/mouse daily day 1-6): 0.320 grams
Paw withdrawal threshold, mean, Day 7 ([3]; i.t. 10 μl/mouse daily day 1-6): 1.024 grams
Paw withdrawal threshold, mean, Day 1 ([3]; i.t. 10 μl/mouse daily day 1-6, testing 2 hr after first i.t. injection): 0.321 grams
Reversal of allodynia ([3]; i.t. administration, as compared to vehicle and compound #5): almost complete reversal of allodynia
Paw withdrawal threshold, mean, Day 0 Postoperative Baseline ([3]; i.t. study, post operative injury baseline, before treatment): 0.077 grams
Paw withdrawal threshold, mean, Day(-2) Pre-operative Baseline ([3]; i.t. study, testing prior to SNL injury, before treatment): 1.268 grams

Molecule: CNC(=O)[C@H](Cc1c[nH]c2ccccc12)NC(=O)[C@@H](CC(=O)NO)CC(C)C [GM6001]
Effect on mechanical nociception [4]: attenuate mechanical nociception

Molecule: CNC(=O)[C@@H](NC(=O)[C@H](CC(C)C)[C@H](O)C(=O)NO)C(C)(C)C [Marimastat]
Musculoskeletal toxicities [5]: time-dependent and dose-dependent musculoskeletal toxicities (arthralgia, myalgia, tendinitis)

Molecule: CCOCOC[C@H](C[C@H](C)C(=O)NO)NC(=O)c1ccc(Oc2ccccc2)cc1 [ONO-4817]
Ki [6]: 2500 nM
Ki [7]: 42 nM
Ki [8]: 1.1 nM
Ki [9]: 2.1 nM
Ki [10]: 1.1 nM
Effect on the analgesic effect of intrathecal MMP-2 (Phase I agitation behavior) ([11]; MMP-2 injected intrathecally): antagonized
Effect on the rat formalin test when given alone ([11]; inhibitor given alone): no affect
Ki [12]: 0.45 nM
Ki [13]: 0.73 nM

Molecule: TIMP-1: endogenous matrix metalloproteinase inhibitor
Effect on neuropathic pain in the SNL model [14]: suppressed neuropathic pain
